Earlier results, collected in US11351185B2, “Use of isovalerylspiramycins as anti-cancer agents to inhibit metastasis” (priority 2020, dated 2022).

How the values were obtained:
[1] = tested on: in vivo cancer parameters; details: animal models; cited from earlier work
human cancer lines = details: MCF-7, MDA-MB-231, HepG2, A549, H460, H1299, 786-0, 769-P, U251, A172, U937, HeLa, PC3, PANC-1, TE-1, SGC-7901, HT-29, HL-60; cited from earlier work

| SMILES | in vivo cancer parameters such as tumor growth rate and relative tumor volume [1] | effect on proliferation in vitro of human cancer lines (human cancer lines) |
| --- | --- | --- |
| CO[C@@H]1[C@@H](O[C@@H]2O[C@H](C)[C@@H](O[C@H]3C[C@@](C)(O)[C@@H](OC(=O)CC(C)C)[C@H](C)O3)[C@H](N(C)C)[C@H]2O)[C@@H](CC=O)C[C@@H](C)[C@@H](O[C@H]2CC[C@H](N(C)C)[C@@H](C)O2)/C=C/C=C/C[C@@H](C)OC(=O)C[C@H]1OC(C)=O [ISP II, 4″-isolvalerylspiramycin II] | reduction | inhibitory effect |
| CCC(=O)O[C@@H]1CC(=O)O[C@H](C)C/C=C/C=C/[C@H](O[C@H]2CC[C@H](N(C)C)[C@@H](C)O2)[C@H](C)C[C@H](CC=O)[C@H](O[C@@H]2O[C@H](C)[C@@H](O[C@H]3C[C@@](C)(O)[C@@H](OC(=O)CC(C)C)[C@H](C)O3)[C@H](N(C)C)[C@H]2O)[C@H]1OC [ISP III, 4″-isolvalerylspiramycin III] | reduction | inhibitory effect |
